Columns and labels:
MMP1 = target: T1, MMP1 (Homo sapiens, UniProt P03956); assay: MMP assay (fluorogenic substrate ES010); type: biochemical
T1 construct: purchased R&D Systems 901-MP
T1 sequence (P03956 100-469): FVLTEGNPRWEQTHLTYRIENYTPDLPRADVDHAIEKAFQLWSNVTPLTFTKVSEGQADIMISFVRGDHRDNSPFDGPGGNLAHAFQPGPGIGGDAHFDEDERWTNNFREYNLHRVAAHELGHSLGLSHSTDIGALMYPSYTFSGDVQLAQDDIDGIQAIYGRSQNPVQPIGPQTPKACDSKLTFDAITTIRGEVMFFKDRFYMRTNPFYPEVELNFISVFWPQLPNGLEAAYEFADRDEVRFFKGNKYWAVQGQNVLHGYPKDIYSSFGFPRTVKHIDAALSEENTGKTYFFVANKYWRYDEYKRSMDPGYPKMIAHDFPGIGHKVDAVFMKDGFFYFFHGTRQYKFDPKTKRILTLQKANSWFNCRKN
Experimental: (§1) MMP-1, MMP-2, MMP-8, MMP-9, MMP-10, MMP-13, MMP-14, ADAM10, ADAM17 and Mca-KPLGL-Dpa-AR-NH2 fluorogenic peptide substrate were purchased from R&D Systems (cat # 901-MP, 902-MP, 908-MP, 911-MP, 910-MP, 511-MM, 918-MP, 936-AD, 930-ADB, and ES010, respectively). All common chemicals were purchased from Sigma. NFF449 was purchased from Tocris (cat# 1391) and actinonin was from Sigma-Aldrich, St. Louis, MO, USA (cat# 01809).
(§2) All assays followed the same general protocol. 5 µL of 2× enzyme solution (5 nM) in assay buffer (50 mM Tricine, 50 mM NaCl, 10 mM CaCl2, 0.05% Brij-35, pH 7.5) were added to solid-bottom black 384 plates (Nunc, cat# 264705). Next, test compounds and pharmacological controls were added to corresponding wells using a 384-pin tool device (V&P Scientific, San Diego). After 30 min incubation at RT, the reactions were started by addition of 5 µL of 2× solutions of MMP substrate (R&D Systems cat#: ES010, 20 µM). Reactions were incubated at RT for 1 h, after which the fluorescence was measured using the Synergy H4 multimode microplate reader (Biotek Instruments) (λexcitation = 324 nm, λemission = 390 nm). All compounds were tested in 10-point, 1:3 serial dilutions dose-response format starting with highest concentration of 100 µM. IC50 values were determined using non-linear regression analysis using the GraphPad Prism 8.0 suite of programs.

[1] = test system: HEK293 (kidney) and BJ (skin fibroblasts) cells; assay: Cytotoxicity, CellTox Green assay; type: cell-based
Experimental: (§3) Figure 6 Characterization of SR24717 for effects on cell viability and cytotoxicity. (A) Effect of SR24717 on viability of WM266-4 (skin melanoma), HEK293 (kidney), and BJ (skin fibroblasts) cells. CellTiter Glo™ assay (Promega) was used after 72 h treatment. (B) Effect of SR24717 on viability of HEK293 (kidney) and BJ (skin fibroblasts) cells. The CellTox Green™ assay (Promega) was used. All experiments performed as 10-point 3-fold concentration-response curves in triplicate.

[2] = test system: WM266-4 (skin melanoma), HEK293 (kidney), and BJ (skin fibroblasts) cells; assay: Cell viability, CellTiter Glo assay after 72 h treatment; type: cell-based
Experimental: as §3
Test compounds were solubilized in 100% DMSO and added to polypropylene 384-well plates (Greiner cat# 781280). 1250 of BJ skin fibroblasts or primary melanocytes were plated in 384-well plates in 8 µL of serum-free media (HybriCare for BT474, EMEM for HEK293). […] Luminescence was recorded using a Biotek Synergy H1 multimode microplate reader. Viability was expressed as a percentage relative to wells containing media only (0%) and wells containing cells treated with DMSO only (100%). Three parameters were calculated on a per-plate basis: (a) the signal-to-background ratio (S/B), (b) the coefficient for variation (CV; CV = (standard deviation/mean) × 100) for all compound test wells, and (c) the Z’-factor. IC50 values were calculated by fitting normalized data to sigmoidal log vs. response equation utilizing non-linear regression analysis from GraphPad Prism 8.

MMP10 = target: T2, MMP10 (Homo sapiens, UniProt P09238); assay: MMP assay (fluorogenic substrate ES010); type: biochemical
T2 construct: purchased R&D Systems 910-MP
T2 sequence (P09238 99-476): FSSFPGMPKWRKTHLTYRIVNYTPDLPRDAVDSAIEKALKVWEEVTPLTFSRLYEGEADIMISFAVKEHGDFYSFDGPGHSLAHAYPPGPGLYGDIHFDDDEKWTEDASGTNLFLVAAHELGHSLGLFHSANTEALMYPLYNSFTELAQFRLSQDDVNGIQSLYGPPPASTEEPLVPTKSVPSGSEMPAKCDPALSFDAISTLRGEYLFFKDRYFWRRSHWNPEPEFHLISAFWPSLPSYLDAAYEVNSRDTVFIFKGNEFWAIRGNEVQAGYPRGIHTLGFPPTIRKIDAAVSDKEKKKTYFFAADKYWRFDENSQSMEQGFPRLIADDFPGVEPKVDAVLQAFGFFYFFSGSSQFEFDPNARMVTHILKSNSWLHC
Experimental: as §1, §2

ADAM10 = target: T3, ADAM10 (Homo sapiens, UniProt O14672); assay: ADAM10 assay; type: biochemical
T3 construct: purchased R&D Systems 936-AD
T3 sequence (O14672 214-748): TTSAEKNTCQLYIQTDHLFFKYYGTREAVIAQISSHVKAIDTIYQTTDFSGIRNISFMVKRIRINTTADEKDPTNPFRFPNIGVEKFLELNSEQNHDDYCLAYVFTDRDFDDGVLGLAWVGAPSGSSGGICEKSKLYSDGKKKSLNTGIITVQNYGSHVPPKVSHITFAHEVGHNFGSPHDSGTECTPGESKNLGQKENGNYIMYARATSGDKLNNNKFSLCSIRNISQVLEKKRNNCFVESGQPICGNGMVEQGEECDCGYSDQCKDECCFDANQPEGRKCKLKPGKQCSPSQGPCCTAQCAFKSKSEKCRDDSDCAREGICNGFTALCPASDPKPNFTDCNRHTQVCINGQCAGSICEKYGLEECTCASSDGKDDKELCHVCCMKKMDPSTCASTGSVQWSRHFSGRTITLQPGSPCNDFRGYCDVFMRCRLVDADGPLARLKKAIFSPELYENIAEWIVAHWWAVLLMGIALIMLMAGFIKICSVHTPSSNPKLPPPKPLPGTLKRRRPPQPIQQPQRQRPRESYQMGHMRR
Experimental: All common chemicals were purchased from Sigma.
Both assays followed the same general protocol. […] After 30 min incubation at RT, the reactions were started by addition of 2.5 µL of 2× solutions of substrate (R&D Systems cat#: ES010, Mca-KPLGL-Dpa-AR-NH2, 20 µM). […] All compounds were tested in 10-point, 1:3 serial dilutions dose-response format starting with highest concentration of 100 µM. IC50 values were determined using non-linear regression analysis using the GraphPad Prism 8.0 suite of programs.

Row | Structure (SMILES) | IC50 (MMP1) [µM] | concentration at which cytotoxicity was observed [1] [µM] | concentration at which negative effects on viability were observed [2] [µM] | IC50 (MMP10) [µM] | IC50 (ADAM10) [µM]
1 | CCCCC[C@H](CC(=O)NO)C(=O)N[C@H](C(=O)N1CCC[C@H]1CO)C(C)C [Actinonin, actinonin, reference compound] | 0.1 | – | – | – | –
2 | COc1cc(OC)nc(SCc2nnc(SCC(=O)NO)n2-c2ccc(N(C)C)cc2)n1 [SR24717] | – | 100 | 100 | > 100 | > 100
